Results reported in article PMC12752606, “METTL10‐Mediated PIAS3 Methylation Links Purine Metabolism to Gastric Cancer Progression” (Advanced Science, 2025).

Key:
[1] = test system: MKN45 and AGS cells; assay: Cell proliferation, CCK-8 assay; type: cell-based; conditions: 10 and 20 µM
Method: Cell proliferation was assessed using Cell Counting Kit‐8 (CCK‐8; K1018, APExBIO). Briefly, 1000 cells per well were seeded into 96‐well plates, and proliferation was measured at 450 nm on days 0, 1, 3, 5, and 7 using the CCK‐8 assay using a multifunctional microplate reader.

[2] = target: T1, GFP-tagged METTL10 protein (Homo sapiens, UniProt Q5JPI9); assay: Microscale thermophoresis (MST); type: binding; conditions: lysate of HEK293T cells expressing GFP-METTL10, read-out: Dissociation constant (KD)
T1 construct: host or cells: HEK293T
T1 sequence (Q5JPI9 1-291 isoform Q5JPI9-1): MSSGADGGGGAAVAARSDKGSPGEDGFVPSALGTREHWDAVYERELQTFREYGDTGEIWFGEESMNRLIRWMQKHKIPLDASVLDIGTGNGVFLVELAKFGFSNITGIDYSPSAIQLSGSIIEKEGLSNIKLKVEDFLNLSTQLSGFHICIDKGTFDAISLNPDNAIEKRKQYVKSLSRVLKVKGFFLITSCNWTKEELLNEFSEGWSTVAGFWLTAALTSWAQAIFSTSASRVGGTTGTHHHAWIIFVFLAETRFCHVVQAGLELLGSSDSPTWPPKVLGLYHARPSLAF
Method: Microscale thermophoresis (MST) assays were conducted following the protocol.^[ [49] ^] Briefly, HEK293T cells were transfected with either the pEGFP‐N1‐METTL10 plasmid or the control pEGFP‐N1‐Vector plasmid for 24 h. Subsequently, protein lysates were obtained through ultrasonic disruption at 4 °C. Aliquots of the lysate were then incubated with serially diluted ligands at 37 °C for 30 min. Fluorescence signals were measured, and dissociation constants (Kd) were determined using the NanoTemper Monolith Pico.

[3] = test system: gastric tumors of K19-C2mE mice; assay: K19-C2mE spontaneous gastric cancer mouse model; type: in vivo; conditions: 40 mg/kg/day i.p., 4 weeks
Method: (§1) For the subcutaneous tumor model, 5 × 10⁶ MKN45 cells suspended in 100 µL of sterile PBS were injected subcutaneously into the flanks of BALB/c nude mice. When tumor volumes reached approximately 50 mm^3, mice were randomized into three groups (Vehicle control, LZQ‐02‐023‐01 at 20 mg/kg or 40 mg/kg, n = 10 per group). All treatments were administered via intraperitoneal injection once daily for 14 consecutive days. Tumor volumes were measured every 2 days using calipers and calculated using the formula: volume = [length × (width[2])]/2. Mice were sacrificed on day 24 for endpoint analyses. For genetically engineered mouse models (GEMMs), 25‐week‐old K19‐C2mE mice were randomized into Vehicle control (n = 8) and LZQ‐02‐023‐01 treatment (40 mg/kg, n = 8) groups. Both groups received daily intraperitoneal injections for 28 consecutive days. Similarly, 8‐week‐old Cldn18‐AT mice were induced with tamoxifen (100 mg/kg, T5648, Sigma) and, 2 weeks post‐induction, randomized into Vehicle (n = 6) and LZQ‐02‐023‐01 (40 mg/kg, n = 6) treatment groups. Treatments were administered daily via intraperitoneal injection for 28 days.
(§2) Paraffin sections were initially placed in an oven at 65 °C for 30 min to melt the paraffin. The slides were then immersed in two consecutive xylene baths for 10 min each to dewax the tissue, followed by hydration through a series of graded ethanol solutions. […]

[4] = Body weight and organ toxicity in treated tumor-bearing mice; type: in vivo; conditions: K19-C2mE and Cldn18-AT mice
Method: as §1

[5] = test system: METTL10 protein levels in MKN45 and AGS cells; assay: Immunoblotting of METTL10 protein levels in treated GC cells; type: cell-based; conditions: 20 µM, not rescued by MG132
Method: Protein extraction from tissues or cells was performed by lysis buffer (20 mM Tris‐HCl (pH 7.5), 150 mM NaCl, 1 mM EDTA, 1 mM EGTA, 2.5 mM sodium pyrophosphate, 1 mM β‐glycerolphosphate, 1% Triton X‐100) supplemented with 1% phenylmethylsulfonyl fluoride (PMSF; Solarbio, P0100) and protease inhibitor cocktail (Apexbio, K1007) and lysed at 4 °C for 60 min, followed by centrifugation at 12000 g for 15 min at 4 °C. For Immunoblotting, the protein concentration was determined using the Pierce BCA Protein Assay Kit (Thermo Fisher Scientific, A55864). The protein samples were denatured by boiling in SDS‐PAGE loading buffer. For immunoprecipitation, antibodies were incubated with Dynabeads Protein G (Thermo, 10004D) at 4 °C for 4 h. The supernatant was then incubated with magnetic beads conjugated with antibodies or anti‐FLAG‐M2 magnetic beads (Sigma–Aldrich, M8823) at 4 °C overnight. Following incubation, the magnetic beads were washed three times with lysis buffer and then boiled in SDS‐PAGE loading buffer. The proteins were separated by sodium dodecyl sulfate polyacrylamide gel electrophoresis (SDS‐PAGE) with One‐Step PAGE Gel Fast Preparation Kit (Vazyme), and then transferred to the PVDF Membrane (Bio‐Rad). After blocking with a protein‐free rapid blocking buffer (Epizyme, PS108P) for 15 min, the membranes were incubated with primary antibodies at 4 °C overnight. […]

[6] = test system: MKN45 and AGS cells; assay: Colony formation assay; type: cell-based; conditions: 10 and 20 µM
Method: Cells (1000 cells/well) were seeded in six‐well plates and provided with fresh culture medium every 3 days. After 14 days of incubation, the medium was removed, and the cells were gently washed three times with room‐temperature PBS. The cells were then fixed with 1 mL of 4% paraformaldehyde per well for 15 min. Next, 1 mL of 0.1% crystal violet solution was added to each well and incubated for 10 min to stain the cells. The crystal violet solution was drained, and the wells were rinsed with running water to remove excess stain, followed by air drying and photography.

[7] = test system: MKN45 xenografts; assay: MKN45 subcutaneous xenograft model; type: in vivo, BALB/c nude mice; conditions: 20 or 40 mg/kg i.p. once daily for 2 weeks
Method: as §1, §2

[8] = test system: Flag-METTL10 protein in HEK293T cells; assay: Cycloheximide chase assay of Flag-METTL10 stability; type: cell-based; conditions: 20 µM
[9] = MKN45 xenograft, 20 or 40 mg/kg/day

Cc1ccc(Nc2ncc3c(n2)N(C)C(=O)N(c2cccc(N)c2)C3)cn1 [LZQ-02-023-01, Three‐(3‐aminophenyl)‐1‐methyl‐7‐((6‐methylpyridin‐3‐yl)amino)‐3,4‐dihydropyrimido [4,5‐d] pyrimidin‐2 (1H)‐one]
GC cell proliferation (CCK-8) [1]: significantly inhibited
Kd [2]: 4.47 µM
Pathologic grade of lesions and proliferation (H&E, Ki-67) [3]: lower pathologic grade lesions and proliferation
Tumor burden and progression [3]: significantly reduce tumor burden and progression
Spleen weight ([4]; 40 mg/kg/day): reduction
Body weight loss [4, 9]: did not cause substantial weight loss
Discernible toxic effects on other organs [4, 9]: did not cause
METTL10 protein levels [5]: significant reduction
GC cell proliferation (colony formation) [6]: significantly inhibited
Growth of xenografts derived from MKN45 cells [7]: significant reduction
Ki-67 expression, PIAS3-K442 methylation and MITF in xenografts [7]: significantly decreased
Half-life of METTL10 protein [8]: remained unchanged
